Assay results from patent US7601333B2, “Use of a tetrapeptide AcSDKP (SEQ ID No. 1) analog resistant to the angiotensin I converting enzyme for measuring glomerular filtration rate in a human or an animal and kit containing same” (Assistance Publique-Hopitaux de Paris, priority 2003, dated 2009).
Values joined by “and” are separate entries in the source; they are usually repeats but may differ in a detail not shown here. Identical values can stand only once. Residues, ends and D or L forms follow the SMILES beside them.

Key:
[1] = Plasma and urine pharmacokinetics after I.V. bolus in rats; conditions: for % excreted: urine; for Renal clearance: summarizing table, i.v. bolus
[2] = molecular target: T1, ACE present in mouse plasma (Mus musculus, UniProt P09470); conditions: cited from earlier work
T1 construct: host or cells: mouse plasma
T1 sequence (P09470 35-1237 limits assumed): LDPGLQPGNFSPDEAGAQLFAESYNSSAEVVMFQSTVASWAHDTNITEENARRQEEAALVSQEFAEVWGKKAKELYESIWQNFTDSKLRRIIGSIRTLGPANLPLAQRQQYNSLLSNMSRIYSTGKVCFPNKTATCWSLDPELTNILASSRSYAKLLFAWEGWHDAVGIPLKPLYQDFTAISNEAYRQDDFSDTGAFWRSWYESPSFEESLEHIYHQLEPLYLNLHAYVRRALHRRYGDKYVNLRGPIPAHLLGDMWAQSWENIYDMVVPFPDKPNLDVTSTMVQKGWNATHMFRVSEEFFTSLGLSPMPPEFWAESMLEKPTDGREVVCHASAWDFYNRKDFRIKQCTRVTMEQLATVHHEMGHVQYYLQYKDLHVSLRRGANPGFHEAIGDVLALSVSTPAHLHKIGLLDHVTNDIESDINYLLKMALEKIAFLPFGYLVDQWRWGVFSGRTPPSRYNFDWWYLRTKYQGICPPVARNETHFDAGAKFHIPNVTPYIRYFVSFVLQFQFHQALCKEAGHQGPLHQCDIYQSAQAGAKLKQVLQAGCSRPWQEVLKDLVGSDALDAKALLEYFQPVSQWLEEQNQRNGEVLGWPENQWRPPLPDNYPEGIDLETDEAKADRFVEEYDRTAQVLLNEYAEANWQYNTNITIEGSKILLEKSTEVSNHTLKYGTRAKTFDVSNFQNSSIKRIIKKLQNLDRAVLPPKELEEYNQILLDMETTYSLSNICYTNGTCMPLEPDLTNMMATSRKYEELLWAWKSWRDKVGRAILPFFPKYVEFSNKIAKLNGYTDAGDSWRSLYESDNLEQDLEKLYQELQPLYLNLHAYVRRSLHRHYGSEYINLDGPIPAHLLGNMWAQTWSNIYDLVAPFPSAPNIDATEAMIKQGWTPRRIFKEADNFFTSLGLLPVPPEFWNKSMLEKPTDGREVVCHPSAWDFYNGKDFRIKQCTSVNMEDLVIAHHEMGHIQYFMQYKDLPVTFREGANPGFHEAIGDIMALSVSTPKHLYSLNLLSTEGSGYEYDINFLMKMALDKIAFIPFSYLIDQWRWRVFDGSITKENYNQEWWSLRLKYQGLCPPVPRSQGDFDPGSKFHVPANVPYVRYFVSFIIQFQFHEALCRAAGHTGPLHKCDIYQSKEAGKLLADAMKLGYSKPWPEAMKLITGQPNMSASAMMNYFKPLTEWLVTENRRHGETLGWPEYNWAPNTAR

[3] = cited from earlier work
[4] = Group 3, i.v. bolus, without captopril, 24-48 h, single rats
[5] = Group 3, i.v. bolus, without captopril, mean
[6] = Group 3, i.v. bolus, without captopril, single rats
[7] = Group 4, i.v. bolus, with captopril, 4-24 h, single rats
[8] = Group 4, i.v. bolus, with captopril, 48-72 h, single rats
[9] = Group 4, i.v. bolus, with captopril, mean
[10] = Group 4, i.v. bolus, with captopril, single rats

Q in urine ([1]; Group 3, i.v. bolus, without captopril, 0-2 h, single rats): 175685.1 ng and 0.0 ng (5×) | Concentration in urine [1, 4]: ILQ | Concentration in plasma ([1]; Group 3, i.v. bolus, without captopril, 300 min, single rats): ILQ | CLR [1, 5]: 7.59 mL/min/kg | Ctotal dose/AUC [1, 5]: 8.08 mL/min/kg | % excreted [1, 5]: 92.67% | % excreted [1, 6]: 120.7% | Concentration in urine [1, 7]: 11032 ng/mL | Concentration in urine [1, 8]: ILQ and 11 ng/ml | Concentration in plasma ([1]; Group 4, i.v. bolus, with captopril, 15 min, mean): 1874 ng/mL | Concentration in plasma ([1]; Group 4, i.v. bolus, with captopril, 30 min, mean): 1213 ng/mL | Concentration in plasma ([1]; Group 4, i.v. bolus, with captopril, 60 min, mean): 453 ng/mL | Concentration in plasma ([1]; Group 4, i.v. bolus, with captopril, 120 min, mean): 74 ng/mL | Concentration in plasma ([1]; Group 4, i.v. bolus, with captopril, 180 min, mean): 15 ng/mL | Concentration in plasma ([1]; Group 4, i.v. bolus, with captopril, 240 min, single rats): 2 ng/ml (2×) and 3 ng/ml (3×) | Concentration in plasma ([1]; Group 4, i.v. bolus, with captopril, 300 min, mean): 0 ng/mL | Concentration in plasma ([1]; Group 4, i.v. bolus, with captopril, 300 min, single rats): ILQ (4×) and 0 ng/ml | AUC0-INF [1, 9]: 110097 ng·min/mL | CLR [1, 9]: 8.03 mL/min/kg | Ctotal dose/AUC [1, 9]: 8.06 mL/min/kg | Vd [1, 9]: 0.269 L/kg | t½ [1, 10]: 21.9 min and 23.0 min and 24.1 min | % excreted [1, 9]: 98.76% | GFR measured after administration, difference between the groups of rats ([1]; rats): does not differ significantly | degradation in vivo by ACE or other enzyme systems ([1]; rats): not degraded in vivo | mean AUC of group without captopril less than group with captopril ([1]; rats, mean injected dose 11% higher with captopril): approximately 10% | Renal clearance ([1]; rats, with captopril): 8.0 mL/min/kg | Renal clearance ([1]; rats, without captopril): 7.6 mL/min/kg
Structure (SMILES): CC(=O)N[C@@H](CO)C(=O)N[C@@H](CC(=O)O)C(=O)N[C@@H](CCCCN)C(=O)N1CCC[C@H]1C(N)=O [AcSDKP-NH2, N-acetyl-Ser-Asp-Lys-Pro-NH2] (Ac-SDKP-NH2)
Q in urine ([1]; Group 3, i.v. bolus, without captopril, 2-4 h, single rats): 0.0 ng (3×) and 180325.8 ng and 141210.2 ng and 290581.1 ng | Q in urine ([1]; Group 3, i.v. bolus, without captopril, 4-7 h, single rats): 84030.9 ng and 23548.7 ng and 0.0 ng (4×) | Q in urine ([1]; Group 3, i.v. bolus, without captopril, 7-24 h, single rats): 16014.8 ng and 8570.5 ng and 211497.2 ng and 41898.9 ng and 29223.7 ng and 159391.7 ng | Q in urine [1, 4]: 513.0 ng and 1304.8 ng and 47218.0 ng and 603.6 ng and ILQ and 3161.4 ng | Concentration in plasma ([1]; Group 3, i.v. bolus, without captopril, 5 min, single rats): 2581 ng/mL and 3139 ng/mL and 2865 ng/mL and 2491 ng/mL and 3250 ng/mL and 2663 ng/mL | Concentration in plasma ([1]; Group 3, i.v. bolus, without captopril, 10 min, single rats): 1611 ng/mL and 2288 ng/mL and 2425 ng/mL and 2152 ng/mL and 2918 ng/mL and 2595 ng/mL | Concentration in plasma ([1]; Group 3, i.v. bolus, without captopril, 15 min, single rats): 1655 ng/mL and 985 ng/mL and 2204 ng/mL and 1796 ng/mL and 1930 ng/mL and 1750 ng/mL | Concentration in plasma ([1]; Group 3, i.v. bolus, without captopril, 30 min, single rats): 748 ng/mL and 880 ng/mL and 1317 ng/mL and 1329 ng/mL and 930 ng/mL and 867 ng/mL | Concentration in plasma ([1]; Group 3, i.v. bolus, without captopril, 60 min, single rats): 233 ng/mL and 443 ng/mL and 598 ng/mL and 545 ng/mL and 416 ng/mL and 463 ng/mL | Concentration in plasma ([1]; Group 3, i.v. bolus, without captopril, 120 min, single rats): 47 ng/mL and 45 ng/mL and 163 ng/mL and 118 ng/mL and 48 ng/mL and 69 ng/mL | Concentration in plasma ([1]; Group 3, i.v. bolus, without captopril, 240 min, single rats): ILQ (2×) and 3 ng/ml and 5 ng/ml and 2 ng/ml and 4 ng/ml | AUC0-INF [1, 6]: 87407 ng·min/mL and 125025 ng·min/mL and 111894 ng·min/mL and 101003 ng·min/mL and 96190 ng·min/mL | CLR [1, 6]: 11.8 mL/min/kg and 7.7 mL/min/kg and 6.4 mL/min/kg and 4.9 mL/min/kg and 9.8 mL/min/kg and 5.0 mL/min/kg | Ctotal dose/AUC [1, 6]: 11.3 mL/min/kg and 9 mL/min/kg and 6.2 mL/min/kg and 6.5 mL/min/kg and 8.1 mL/min/kg and 7.2 mL/min/kg | Q in urine total [1, 6]: 276243.9 ng and 213749.7 ng and 258715.2 ng and 183712.7 ng and 319804.8 ng and 162553.1 ng | Vd [1, 6]: 0.27 L/kg and 0.22 L/kg and 0.253 L/kg and 0.256 L/kg and 0.261 L/kg | t½ [1, 6]: 20.7 min (2×) and 24.5 min and 26.8 min and 21.8 min and 25.1 min | Q in urine [1, 7]: 208504.2 ng and 144361.5 ng and 286064.8 ng and 274157.3 ng and 353834.5 ng | Q in urine ([1]; Group 4, i.v. bolus, with captopril, 24-48 h, single rats): 10737.7 ng and 2183.9 ng and 16360.4 ng and 10087.6 ng and 6728.5 ng | Q in urine [1, 8]: 758.4 ng and ILQ and 619.3 ng and 4008.3 ng and 0.0 ng | Concentration in plasma ([1]; Group 4, i.v. bolus, with captopril, 5 min, single rats): 3623 ng/mL and 3115 ng/mL and 4099 ng/mL and 2863 ng/mL and 3280 ng/mL | Concentration in plasma ([1]; Group 4, i.v. bolus, with captopril, 10 min, single rats): 1750 ng/mL and 3571 ng/mL and 3075 ng/mL and 2682 ng/mL and 2346 ng/mL | Concentration in plasma ([1]; Group 4, i.v. bolus, with captopril, 15 min, single rats): 1432 ng/mL and 1978 ng/mL and 2363 ng/mL and 1635 ng/mL and 1960 ng/mL | Concentration in plasma ([1]; Group 4, i.v. bolus, with captopril, 30 min, single rats): 1128 ng/mL and 891 ng/mL and 1173 ng/mL and 889 ng/mL and 1986 ng/mL | Concentration in plasma ([1]; Group 4, i.v. bolus, with captopril, 60 min, single rats): 312 ng/mL and 338 ng/mL and 346 ng/mL and 357 ng/mL and 910 ng/mL | Concentration in plasma ([1]; Group 4, i.v. bolus, with captopril, 120 min, single rats): 31 ng/mL and 63 ng/mL and 64 ng/mL and 73 ng/mL and 140 ng/mL | Concentration in plasma ([1]; Group 4, i.v. bolus, with captopril, 180 min, single rats): 7 ng/mL and 11 ng/mL and 18 ng/mL and 16 ng/mL and 23 ng/mL | AUC0-INF [1, 10]: 100543 ng·min/mL and 114983 ng·min/mL and 92278 ng·min/mL and 153339 ng·min/mL | CLR [1, 10]: 8.2 mL/min/kg and 4.7 mL/min/kg and 9.1 mL/min/kg and 10.6 mL/min/kg and 7.6 mL/min/kg | Ctotal dose/AUC [1, 10]: 9.0 mL/min/kg and 6.9 mL/min/kg and 7.8 mL/min/kg and 9.4 mL/min/kg and 7.2 mL/min/kg | Q in urine total [1, 10]: 220000 ng and 146545.0 ng and 303045 ng and 288253 ng and 360563 ng | Vd [1, 10]: 0.23 L/kg and 0.26 L/kg and 0.327 L/kg and 0.242 L/kg | excretion in the urine ([1]; rats): completely excreted in the urine without being reabsorbed or secreted | degradation by the ACE present in mouse plasma [2]: not degraded | modification after 3 freezing-thawing cycles [3]: no adverse modification
